Results on 3 compounds are retold here after patent US5077296A, “Method for treating equine navicular disease with pentoxifylline, and composition containing pentoxifylline for administrating to horses” (priority 1987, dated 1991).

Series [1] deals with navicular disease. The following applies: cited from earlier work.
Series [2] concerns navicular disease. Kind of series: Conventional navicular disease treatments (background discussion). The series is classed as in vivo. The settings on record: horse #18 (Molson), intermittent lameness over previous 5 months. The source says:
To illustrate the advantages of pentoxifylline over existing navicular disease treatments, the following conventional treatments will be discussed herein.

Regarding `CC(COc1ccccc1)NC(C)C(O)c1ccc(O)cc1` (stereo not shown) [Isoxsuorine], the efficacy result in the series with navicular disease [1] (generic, unpredictable results) is given as “Approximately 50%”.

`CC(=O)CC(c1ccccc1)c1c(O)c2ccccc2oc1=O` (racemic) [Warfarin]: the safety disadvantage entry in the series with navicular disease [1] (accidental lacerations or injuries) is “can be fatal due to hemmorrhage”.

In the case of `CCCCC1C(=O)N(c2ccccc2)N(c2ccccc2)C1=O` [phenylbutazone], the “response to previous treatment” value with navicular disease [2] is “responded”. Besides, in the series on navicular disease [1] (in vivo), the side effects entry is “risk of gastric and cecal ulcers and kidney damage”.
